Three compounds from paper PMC5908784, “Extracellular loops 2 and 3 of the calcitonin receptor selectively modify agonist binding and efficacy” (Biochemical Pharmacology, 2018) can be followed below.

Changes are numbered by the printed parent chain. Where a SMILES comes first, the peptide text is derived from it. Bridges are numbered along the chain shown (N, C = ends).

Assay in all cases: IP1 accumulation
Common to all, as to assay type: cell-based
What all share (details): mean ± S.E.M.; for Emax: IP1 maximal response, SEM

One assay deals with T1, hCTR D373A (Homo sapiens, UniProt P30988, D373A).
T1 construct: c-Myc (N); expressed in transfected cells
T1 sequence (P30988 25-474 D373A): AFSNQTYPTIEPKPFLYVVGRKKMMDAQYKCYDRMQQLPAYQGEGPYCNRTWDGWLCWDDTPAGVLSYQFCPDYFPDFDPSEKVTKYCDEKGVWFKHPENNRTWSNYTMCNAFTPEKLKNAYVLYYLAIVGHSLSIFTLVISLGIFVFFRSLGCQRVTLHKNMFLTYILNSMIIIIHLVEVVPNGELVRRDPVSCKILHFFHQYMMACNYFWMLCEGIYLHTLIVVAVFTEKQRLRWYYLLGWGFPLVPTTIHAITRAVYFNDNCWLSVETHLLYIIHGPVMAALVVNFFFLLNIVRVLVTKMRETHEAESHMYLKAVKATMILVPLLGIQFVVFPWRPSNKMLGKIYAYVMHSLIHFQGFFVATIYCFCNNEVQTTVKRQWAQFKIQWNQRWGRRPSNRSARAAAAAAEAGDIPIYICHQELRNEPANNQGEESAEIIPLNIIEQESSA
In outline: (§1)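 Concentration-response curves were fitted to a 3-parameter logistic model to estimate EC50 and Emax. Cells had been exposed to ligand for 60 min with LiCl, and lysate IP1 determined by HTRF, with normalization to 100 μM ATP.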

For the next assay, the target named is T2, hCTR F285A (Homo sapiens, UniProt P30988, F285A).
T2 construct: expressed in transfected cells
T2 sequence (P30988 25-474 F285A): T1 sequence (P30988 25-474 D373A) with F261A, A349D
In outline:
as §1

The next assay addresses T3, hCTR M367A (Homo sapiens, UniProt P30988, M367A).
T3 construct: c-Myc (N); expressed in transfected cells
T3 sequence (P30988 25-474 M367A): T1 sequence (P30988 25-474 D373A) with M343A, A349D
Summed up: as §1

In a further assay the target is T4, hCTR N365A (Homo sapiens, UniProt P30988, N365A).
T4 construct: c-Myc (N); expressed in transfected cells
T4 sequence (P30988 25-474 N365A): T1 sequence (P30988 25-474 D373A) with N341A, A349D
In outline: as §1

The target of a further assay is T5, hCTR S364A (Homo sapiens, UniProt P30988, S364A).
T5 construct: c-Myc (N); expressed in transfected cells
T5 sequence (P30988 25-474 S364A): T1 sequence (P30988 25-474 D373A) with S340A, A349D
Summed up:
as §1

[1] abbreviates: IP1, CV1-FlpIn cells, 60 min, LiCl.

Regarding `CC[C@H](C)[C@H](NC(=O)[C@H](C)NC(=O)[C@@H](NC(=O)[C@H](CCC(N)=O)NC(=O)[C@@H]1CCCN1C(=O)[C@H](Cc1ccccc1)NC(=O)[C@@H](NC(=O)[C@H](Cc1c[nH]cn1)NC(=O)[C@H](Cc1ccccc1)NC(=O)[C@H](CCCCN)NC(=O)[C@H](CC(N)=O)NC(=O)[C@H](Cc1ccccc1)NC(=O)[C@H](CC(=O)O)NC(=O)[C@H](CCC(N)=O)NC(=O)[C@@H](NC(=O)[C@H](Cc1ccc(O)cc1)NC(=O)[C@@H](NC(=O)CNC(=O)[C@H](CC(C)C)NC(=O)[C@H](CCSC)NC(=O)[C@@H]1CSSC[C@H](N)C(=O)NCC(=O)N[C@@H](CC(N)=O)C(=O)N[C@@H](CC(C)C)C(=O)N[C@@H](CO)C(=O)N[C@@H]([C@@H](C)O)C(=O)N1)[C@@H](C)O)[C@@H](C)O)[C@@H](C)O)[C@@H](C)O)C(=O)NCC(=O)N[C@H](C(=O)NCC(=O)N[C@@H](C)C(=O)N1CCC[C@H]1C(N)=O)C(C)C` [hCT], the maximum response (Emax) on hCTR D373A is 102 ± 10%; at hCTR F285A, 58 ± 6%; at hCTR M367A, 149 ± 8%; at hCTR N365A it was 81 ± 6%; at hCTR S364A, 93 ± 8%.
With `CSCC[C@H](NC(=O)CNC(=O)[C@H](CO)NC(=O)[C@H](Cc1ccccc1)NC(=O)[C@H](CCCNC(=N)N)NC(=O)[C@H](Cc1c[nH]cn1)NC(=O)[C@H](Cc1ccccc1)NC(=O)[C@H](CC(N)=O)NC(=O)[C@H](CC(N)=O)NC(=O)[C@H](CC(C)C)NC(=O)[C@H](CC(N)=O)NC(=O)[C@H](CCCNC(=N)N)NC(=O)[C@H](Cc1c[nH]c2ccccc12)NC(=O)[C@H](Cc1ccc(O)cc1)NC(=O)[C@H](C)NC(=O)[C@H](CO)NC(=O)[C@H](CC(C)C)NC(=O)[C@@H](NC(=O)[C@@H]1CSSC[C@H](N)C(=O)N[C@@H](CO)C(=O)N[C@@H](CC(N)=O)C(=O)N[C@@H](CC(C)C)C(=O)N[C@@H](CO)C(=O)N[C@@H]([C@@H](C)O)C(=O)N1)C(C)C)C(=O)NCC(=O)N[C@@H](Cc1ccccc1)C(=O)NCC(=O)N1CCC[C@H]1C(=O)N[C@@H](CCC(=O)O)C(=O)N[C@H](C(=O)N1CCC[C@H]1C(N)=O)[C@@H](C)O` [pCT] (H-CSNLSTCVLSAYWRNLNNFHRFSGMGFGPETP-NH2; disulfide 1-7), the concentration giving a half-maximal response (EC50) was 14.8 nM at hCTR D373A (setting [1]); 5.01 nM at hCTR F285A (setting [1]); 5.13 nM on hCTR M367A (setting [1]); 2.24 nM on hCTR N365A (setting [1]); 6.92 nM at hCTR S364A (setting [1]). Besides, the maximal effect (Emax) on hCTR D373A came out at 46 ± 3%; at hCTR F285A, 112 ± 13%; at hCTR M367A, 101 ± 8%; at hCTR N365A, 68 ± 6%; at hCTR S364A, 93 ± 6%.
For the compound `CC(C)C[C@H](NC(=O)[C@H](CCCCN)NC(=O)CNC(=O)[C@H](CC(C)C)NC(=O)[C@@H](NC(=O)[C@@H]1CSSC[C@H](N)C(=O)N[C@@H](CO)C(=O)N[C@@H](CC(N)=O)C(=O)N[C@@H](CC(C)C)C(=O)N[C@@H](CO)C(=O)N[C@@H]([C@@H](C)O)C(=O)N1)C(C)C)C(=O)N[C@@H](CO)C(=O)N[C@@H](CCC(N)=O)C(=O)N[C@@H](CCC(=O)O)C(=O)N[C@@H](CC(C)C)C(=O)N[C@@H](Cc1c[nH]cn1)C(=O)N[C@@H](CCCCN)C(=O)N[C@@H](CC(C)C)C(=O)N[C@@H](CCC(N)=O)C(=O)N[C@H](C(=O)N[C@@H](Cc1ccc(O)cc1)C(=O)N1CCC[C@H]1C(=O)N[C@@H](CCCNC(=N)N)C(=O)N[C@H](C(=O)N[C@@H](CC(N)=O)C(=O)N[C@H](C(=O)NCC(=O)N[C@@H](CO)C(=O)NCC(=O)N[C@H](C(=O)N1CCC[C@H]1C(N)=O)[C@@H](C)O)[C@@H](C)O)[C@@H](C)O)[C@@H](C)O` [sCT], the maximal effect (Emax) at hCTR D373A came out at 78 ± 6%; on hCTR F285A, 114 ± 6%; at hCTR M367A it was 123 ± 6%; at hCTR N365A, 66 ± 4%; on hCTR S364A, 87 ± 6%.

What is called Emax is the size of the effect at its maximum, as opposed to the concentration needed. Broadly, the EC50 is the concentration at which the effect is half-maximal.
